Measured values published in patent publication US10711000B2 (Fronthera U.S. Pharmaceuticals LLC, priority 2018, dated 2020).
Where two headings read alike, the source gives them in different places.

Target: T1, Autotaxin (Homo sapiens, UniProt Q13822)
T1 construct: from tissue; host or cells: pooled human plasma
Experiment: LPA formation in pooled human plasma (ex vivo autotaxin inhibition)
Type: biochemical
Conditions: 2 hours incubation
Procedure, shortened: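 Pooled human plasma incubated 2 h with various compound concentrations; LPA 18:2 and 20:4 quantified by LC/MS/MS (negative-ion MRM, LPA17:0 internal standard) after butanol extraction. Inhibition of LPA formation relative to untreated plasma; IC50 by non-linear regression.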

[1] = LPA 18:2 by LC/MS/MS, read-out: LPA formation (18:2) (IC50)
[2] = LPA 20:4 by LC/MS/MS, read-out: LPA formation (20:4) (IC50)

SMILES | IC50 [1] [nM] | IC50 [2] [nM]
CCc1nn2c(C)cc(N3CC4(CCN(C(=O)[C@H]5CCOC5)C4)C3)cc2c1N(C)c1nc(-c2ccc(F)cc2)c(C#N)s1 [Example 45, (S)-2-((2-ethyl-7-methyl-5-(6-(tetrahydrofuran-3-carbonyl)-2,6-diazaspiro[3.4]octan-2-yl)pyrazolo[1,5-a]pyridin-3-yl)(methyl)amino)-4-(4-fluorophenyl)thiazole-5-carbonitrile] | ≤ 100 | ≤ 100
CCc1nn2c(C)cc(N3CC4(CN(C(=O)N5CCN(C)CC5)C4)C3)cc2c1N(C)c1nc(-c2ccc(F)cc2)c(C#N)s1 [Example 32, 2-((2-ethyl-7-methyl-5-(6-(4-methylpiperazine-1-carbonyl)-2,6-diazaspiro[3.3]heptan-2-yl)pyrazolo[1,5-a]pyridin-3-yl)(methyl)amino)-4-(4-fluorophenyl)thiazole-5-carbonitrile] | ≤ 100 | ≤ 100
CCc1nn2c(C)cc(N3CC4(CN(C(=O)c5ccon5)C4)C3)cc2c1N(C)c1nc(-c2ccc(F)cc2)c(C#N)s1 [Example 70, 2-((2-ethyl-5-(6-(isoxazole-3-carbonyl)-2,6-diazaspiro[3.3]heptan-2-yl)-7-methylpyrazolo[1,5-a]pyridin-3-yl)(methyl)amino)-4-(4-fluorophenyl)thiazole-5-carbonitrile] | 100 to 500 | 100 to 500
Cc1cc(N2CC(O)C2)cc2c(N(C)c3nc(-c4ccc(F)cc4)c(C#N)s3)c(C3CC3)nn12 [Example 87, 2-[[2-cyclopropyl-5-(3-hydroxyazetidin-1-yl)-7-methyl-pyrazolo[1,5-a]pyridin-3-yl]-methyl-amino]-4-(4-fluorophenyl)thiazole-5-carbonitrile] | > 1000 | > 1000
Cc1cc(N2CCN(C3COCC3O)CC2)cc2c(N(C)c3nc(-c4ccc(F)cc4)c(C#N)s3)c(C3CC3)nn12 (stereo not shown) [Example 92] | 100 to 500 | 100 to 500
Cc1cc(N2CCC3(CN(C(=O)[C@H]4CCOC4)C3)C2)cc2c(N(C)c3nc(-c4ccc(F)cc4)c(C#N)s3)c(C3CC3)nn12 [Example 86, (S)-2-((2-cyclopropyl-7-methyl-5-(2-(tetrahydrofuran-3-carbonyl)-2,6-diazaspiro[3.4]octan-6-yl)pyrazolo[1,5-a]pyridin-3-yl)(methyl)amino)-4-(4-fluorophenyl)thiazole-5-carbonitrile] | ≤ 100 | ≤ 100
CCc1nn2c(C)cc(N3CCC4(CN(C(=O)[C@H]5CCCO5)C4)C3)cc2c1N(C)c1nc(-c2ccc(F)cc2)c(C#N)s1 [Example 49, (R)-2-((2-ethyl-7-methyl-5-(2-(tetrahydrofuran-2-carbonyl)-2,6-diazaspiro[3.4]octan-6-yl)pyrazolo[1,5-a]pyridin-3-yl)(methyl)amino)-4-(4-fluorophenyl)thiazole-5-carbonitrile] | ≤ 100 | ≤ 100
CCc1nn2c(C)cc(N3CC4(CN(C(=O)C5COC5)C4)C3)cc2c1N(C)c1nc(-c2ccc(F)cc2)c(C#N)s1 [Example 31, 2-((2-ethyl-7-methyl-5-(6-(oxetane-3-carbonyl)-2,6-diazaspiro[3.3]heptan-2-yl)pyrazolo[1,5-a]pyridin-3-yl)(methyl)amino)-4-(4-fluorophenyl)thiazole-5-carbonitrile] | 100 to 500 | 100 to 500
CCc1nn2ccc(N3CC4(CC4C(=O)N4CC(O)C4)C3)cc2c1N(C)c1nc(-c2ccc(F)cc2)c(C#N)s1 (stereo not shown) [Example 7, 2-((2-ethyl-5-(1-(3-hydroxyazetidine-1-carbonyl)-5-azaspiro[2.3]hexan-5-yl)pyrazolo[1,5-a]pyridin-3-yl)(methyl)amino)-4-(4-fluorophenyl)thiazole-5-carbonitrile] | 100 to 500 | 100 to 500
CCc1nn2ccc(N3CCC4(CN(C(=O)N5CC(O)C5)C4)C3)cc2c1N(C)c1nc(-c2ccc(F)cc2)c(C#N)s1 [Example 16, 2-((2-ethyl-5-(2-(3-hydroxyazetidine-1-carbonyl)-2,6-diazaspiro[3.4]octan-6-yl)pyrazolo[1,5-a]pyridin-3-yl)(methyl)amino)-4-(4-fluorophenyl)thiazole-5-carbonitrile] | ≤ 100 | ≤ 100
Cc1cc(N2CCN(CC(N)=O)CC2)cc2c(N(C)c3nc(-c4ccc(F)cc4)c(C#N)s3)c(C3CC3)nn12 [Example 79] | 500 to 1000 | 500 to 1000
CCc1nn2c(C)cc(N3CC4(CN(C(=O)c5cnco5)C4)C3)cc2c1N(C)c1nc(-c2ccc(F)cc2)c(C#N)s1 [Example 57, 2-((2-ethyl-7-methyl-5-(6-(oxazole-5-carbonyl)-2,6-diazaspiro[3.3]heptan-2-yl)pyrazolo[1,5-a]pyridin-3-yl)(methyl)amino)-4-(4-fluorophenyl)thiazole-5-carbonitrile] | ≤ 100 | ≤ 100
CCc1nn2ccc(N3CCC4(CCN(C(=O)N5CC(O)C5)C4)C3)cc2c1N(C)c1nc(-c2ccc(F)cc2)c(C#N)s1 (stereo not shown) [Example 20, 2-((2-ethyl-5-(7-(3-hydroxyazetidine-1-carbonyl)-2,7-diazaspiro[4.4]nonan-2-yl)pyrazolo[1,5-a]pyridin-3-yl)(methyl)amino)-4-(4-fluorophenyl)thiazole-5-carbonitrile] | ≤ 100 | ≤ 100
CCc1nn2cc(F)c(N3CCC4(CN(C(=O)N5CC(O)C5)C4)C3)cc2c1N(C)c1nc(-c2ccc(F)cc2)c(C#N)s1 [Example 111, 2-((2-ethyl-6-fluoro-5-(2-(3-hydroxyazetidine-1-carbonyl)-2,6-diazaspiro[3.4]octan-6-yl)pyrazolo[1,5-a]pyridin-3-yl)(methyl)amino)-4-(4-fluorophenyl)thiazole-5-carbonitrile] | ≤ 100 | ≤ 100
CCc1nn2ccc(N3CCN(CC(=O)N4CC[C@@H](O)C4)CC3)cc2c1N(C)c1nc(-c2ccc(F)cc2)c(C#N)s1 [Example 3, (R)-2-((2-ethyl-5-(4-(2-(3-hydroxypyrrolidin-1-yl)-2-oxoethyl)piperazin-1-yl)pyrazolo[1,5-a]pyridin-3-yl)(methyl)amino)-4-(4-fluorophenyl)thiazole-5-carbonitrile] | ≤ 100 | ≤ 100
CCc1nn2cc(C)c(N3CCN(CC(=O)N4CC(O)C4)CC3)cc2c1N(C)c1nc(-c2ccc(F)cc2)c(C#N)s1 [Example 96, 2-((2-ethyl-5-(4-(2-(3-hydroxyazetidin-1-yl)-2-oxoethyl)piperazin-1-yl)-6-methylpyrazolo[1,5-a]pyridin-3-yl)(methyl)amino)-4-(4-fluorophenyl)thiazole-5-carbonitrile] | ≤ 100 | ≤ 100
Cc1cc(N2CCN(C3COC3)CC2)cc2c(N(C)c3nc(-c4ccc(F)cc4)c(C#N)s3)c(C3CC3)nn12 [Example 94, 2-((2-cyclopropyl-7-methyl-5-(4-(oxetan-3-yl)piperazin-1-yl)pyrazolo[1,5-a]pyridin-3-yl)(methyl)amino)-4-(4-fluorophenyl)thiazole-5-carbonitrile] | 100 to 500 | 500 to 1000
